Laboratory results reported in paper PMC9585585, “Discovery of Small-Molecule Allosteric Inhibitors of PfATC as Antimalarials” (Journal of the American Chemical Society, 2022).
Values joined by “and” are separate entries in the source; they are usually repeats but may differ in a detail not shown here. Equal entries are not always repeated. Where two headings read alike, the source gives them in different places.

Tests used:
[1] = tested on: P. falciparum 3D7; assay: Growth-inhibition assay of P. falciparum (SYBR Green I); type: cell-based, Plasmodium falciparum; details: P. falciparum 3D7, 96 h, read-out: EC50 against blood stage 3D7 cultures
Protocol: 488Cell culture and growth-inhibition assay of P. falciparum. P. falciparum 3D7 parasites
489(Wellcome Trust Dundee) were maintained in continuous culture at 37 °C and an atmosphere
490consisting of 90% N 2, 5% O2, and 5% CO2 as described previously 30 with modifications.31
491Parasites were maintained in 25 mM 4-(2-hydroxyethyl)-1-piperazineethanesulfonic acid (HEPES)
492and 11.9 mM sodium bicarbonate buffered RPMI 1640 medium supplemented with D-glucose
493(11 mM), hypoxanthine, AlbuMAX-I (0.5% w/v), and 10 µg/mL gentamicin. 0+ blood was
494provided by “Hospital Novo Atibaia” (Brazil) in agreement with the ethics committee at ICB-USP.
495Compounds were tested for their inhibitory effect against P. falciparum 3D7 conducting SYBR
496Green I (Invitrogen) drug assays as reported. 32, 33 Briefly, two-fold serial dilutions of compounds
497were prepared in 96-well plates starting from 100 and 20 µM in technical triplicate and incubated
498for 96 h under normal growth conditions using an initial parasitemia of 0.5% and a hematocrit of
4992% in a volume of 100 µL per well. Parasite proliferation was measured by quantifying DNA via
500SYBR Green I emitted fluorescence in the wells after addition of 100 µL lysis buffer supplemented
501with SYBR Green I (0.02% v/v) and incubation for 1 h at room temperature in the dark.
502Fluorescence was quantified using a CLARIOstar plate reader (BMG Labtech, Germany) at
503excitation and emission wavelength bands of 485 (± 9) and 530 (± 12) nm, respectively. Focal and
504gain adjustment was performed using the negative controls (highest expected fluorescence signal).
505Data was acquired via the CLARIOstar (V5.20) and MARS software, manually normalized, and
506plotted using the nonlinear regression curve fit implemented in GraphPad Prism as described below
507in more detail. Non-treated parasites, highest solvent concentration on parasites, and highest drug
508concentration in medium were used as controls for maximal growth, solvent control, and native
509drug fluorescence, respectively.
511Nonlinear regression fit and analysis of dose-response drug assays. Nonlinear regression as
512implemented in GraphPad Prism 8.4.3 (log(inhibitor) vs. response – Variable slope (four
513parameters)) was used to fit the measured data to interpolate the IC 50 value from the curve. No
514specific model was applied. Data was pre-processed by min-max-scaling according to the
517where y is the fluorescence signal in each well, y minimum the background fluorescence, and ymaximum
518the highest measured fluorescence signal in the untreated wells. Drug concentrations (in µM) were
519transformed to the log(10)of the values. Means of each independent experiment were plotted as
520individual values, and the SD of the mean from the means shown as error bars. The test for
521homoscedasticity was performed to confirm if no weighting of values was appropriate.

[2] = tested on: normal lymphocytes; assay: Human cell line experiments, AlamarBlue, normal lymphocytes; type: cell-based; details: for EC50: Hs normal lymphocytes, 72 hours, read-out: EC50 against normal lymphocytes; for cytotoxicity against cultured human lymphocytes: at 100 μM
Protocol: page 4: […] 418one in 50% (v/v) sulfuric acid) and one volume of 2,3-Butanedione monoxime (80 mM 2,3- 419Butanedione monoxime in 5% (v/v) acetic acid). After plates were sealed with transparent sealing 420tape to prevent evaporation and incubated overnight in the dark place at room temperature. After 421incubation, the plates were heated at 95 °C for 15 min in dark place, and kept for 30 min before 422measuring at 466 nm suing a Synergy H1 Hybrid Reader (BioTek). Analyses were performed using 423Microsoft Excel and Graph Pad Prism. 424HsATC activity assay. The enzymatic assay was performed as described herein above for 425enzymatic assay of PfATC with minor modifications. Briefly, the reaction was carried out at room 426temperature in a total volume of 150 μl of 10 mM L-aspartate and 5 mM carbamoyl phosphate 427saturated substrate solution in 50 mM Tris-Acetate buffer pH 8.3. hsATC was pre-incubated with 428inhibitor and L-Asp for 10 min at room temperature on a shaker. The reaction was initiated by 429adding CP and stopped after 5 min with […] color mix. Then the plate was covered by sealing 430tape and kept in dark place at room temperature and then heated to 95 °C for 15min in dark and kept 431the plate in the dark for another 30 min before measuring the absorbance at 466 nm suing a Synergy 432H1 Hybrid Reader (BioTek). Analyses were performed using Microsoft Excel and Graph Pad 433Prism. 434Human cell line experiments. The cell lines A375 (melanoma), H1299 (lungca), MCF7 435(breastca), REC-1 (mantel cell lymphoma, SUDHL2 (diffuse large B-cell lymphoma) and normal 436lymphocytes (obtained from tonsils) were cultured in RPMI 1640 (Lonza BioWhittaker, 437Walkersville, MD, USA) with 10% fetal bovine serum (FBS; HyClone Thermo Scientific, 438Waltham, MA, USA). Cells were plated in 96-wells plates and incubated with increasing 439concentrations of compounds for 72 hours as indicated. All experiments were performed in page 5: 440triplicate. AlamarBlue (Thermo Fisher Scientific, Waltham, MA USA) was added eight hours prior 441to read-out (extinction 560nm, emission 590nm). […] A freshly prepared protein 443solution at a concentration of 10 mg ml -1 and immediately used in crystallization trials. The 444screening for crystallization conditions for PfATC was performed using a high-through 445crystallization robot (Gryphon, Art Robbins) against commercially available sparse-matrix 446screening kits (JCSG plus and PACT premier; Molecular Dimensions Ltd.). All experiments were 447performed at 293 K using the sitting drop vapor diffusion technique in 96 well MRC2 plates 448(Molecular Dimensions Ltd.). Equal volumes (0.2 μL) of protein solution and crystallization 449reagent were equilibrated against 50 μL of reservoir solution. Medium size single crystals appeared 450overnight in various conditions containing PEG3350/4000. The apo-crystals were soaked for 10 […] 452the solution plus 20% glycerol, flash-cooled and stored in liquid nitrogen. The flashed cooled 453crystals was shipped to […], Deutsches Elektronen-Synchrotron DESY Beamline P11. […] The purified PfATC […] 457stocks in 100% DMSO) at a molar ratio of 1:5. The mixture was incubated at 20 °C for 40 minutes, 458then centrifugation was performed to remove the precipitate. The supernatant was immediately 459used in crystallization trials. The crystallization reagent were the same as apo crystallization […] The crystals were flash- 461cooled and stored in liquid nitrogen, and was shipped to […], Deutsches Elektronen- 462Synchrotron DESY Beamline P11.

Structure (SMILES)	EC50 [1]	EC50 [2] [µM]	cytotoxicity against cultured human lymphocytes [2]	EC50 ([1]; Plasmodium falciparum, 3D7, 96 h) [µM]	EC50 ([2]; Homo sapiens, Lymphocyte) [µM]
CC(C)(C)OC(=O)Nc1sc(-c2ccccc2)cc1C(=O)NCCc1ccc(O)cc1 [BDA-11]	3.4 µM and 3.37 µM	757			
COc1cccc(CCNC(=O)c2cc(-c3ccccc3)sc2NC(=O)OC(C)(C)C)c1 [BDA-24]	2 µM and 2.03 µM	911			
CC(C)(C)OC(=O)Nc1sc(-c2ccccc2)cc1C(=O)NCCO [BDA-14]	42.5 µM	> 1000	no cytotoxicity		
CC(C)(C)OC(=O)Nc1sc(-c2ccccc2)cc1C(=O)NCCc1ccccc1 [BDA-04]	2.43 µM		no cytotoxicity	2.4	~1000
